# Laboratory results as given in patent US7101867B2, “Benzofuran derivatives, their production and use” (Takeda Pharmaceutical Company Limited, priority 1998, dated 2006).
# Test system: Human neuroblastoma SK-N-SH cells
# Experiment: Cytoprotection in human neuroblastoma SK-N-SH cells against a PI-3-kinase inhibitor, LY-294002
# Format: cell-based
# Conditions: test compound 1.0 μM with LY-294002 30 μM; survival by Alamarblue reduction one day after initiation; (A−B)/(C−B)×100
# Method: Cytoprotection in human neuroblastoma SK-N-SH cells against a PI-3-kinase inhibitor, LY-294002
# Human neuroblastoma SK-N-SH cells were purchased from American Type Cell Culture (ATCC). DMEM/F-12 culture medium and potassium/magnesium-free phosphate buffer saline (PBS(−)) were purchased from Nikken Biomedical Co., Ltd., N2 additives and EDTA solution from GIBCO BRL Company, fetal bovine serum (FCS) and a mixed solution of penicillin (5000 U/ml) and streptomycin (5 mg/ml) from BioWhittaker Inc., Alamarblue™ reagent from Wako Pure Chemical Industries Ltd., culture flasks from Falcon Company, collagen-coated 96-well multi-plates from Iwaki Glass Co., Ltd., and LY-294002 from Alexis Biochemicals, respectively. As for other reagents, commercially available guaranteed reagents were used.
# By using DMEM/F-12 culture medium which contains 5% FCS, 0.5% N2, 10 mM HEPES, and a 1% mixed solution of penicillin (5000 U/ml) and streptomycin (5 mg/ml), SK-N-SH cells were subcultured in a carbon dioxide incubator under a mixed gas atmosphere consisting of 10% carbon dioxide and 90% air. After being cultivated to a sub-confluent stage, the cells were detached by a PBS(−) solution containing 2.5 mM EDTA and seeded onto collagen-coated 96-well multi-plates in the proportion of 1.0×10^4 cells/100 μl/well. After cultivation for 24 hours, the cells thus prepared were used for the cytoprotection assay.
# (§1) There was removed 80 μl of the culture medium of SK-N-SH cells that was cultivated as described above on 96-wells, collagen-coated, multi-plates and thereto were added at the same time 40 μl each of LY-294002 of the final concentrations of 30 μM and each test compound the final concentrations of that was adjusted to be 1.0 μM, to initiate the cytotoxicity test. Hereupon, each test compound was used after adjusting the concentration to be 10 mM with dimethyl sulfoxide and LY-294002 was used after adjusting the concentration to be 100 mM with dimethyl sulfoxide, each of which was diluted prior to its use in the test.
# The survival activity of nerve cells that were still living one day after initiation of the cytotoxicity test was determined by the activity of the cells to reduce the Alamarblue™ reagent as an index. There was removed 20 μl of the culture medium and 20 μl of Alamarblue™ reagent was added. The amount of Alamarblue™ reagent reduced by the cells over the period of 4 hours was calorimetrically determined (measurement wave length: 570 nm; reference wave length: 600 nm) By using a plate reader (WAKO SPECTRAMAX 250 Microplate Reader). Cytoprotection activity was calculated according to the following equation. Cytoprotection activity of each compound=(A−B)/(C−B)×100(%) • A: The survival activity of the group consisting of a test compound and LY-294002 added • B: The survival activity of the group consisting of LY-294002 added • C: The survival activity of the control group
# The cytoprotection activity of each compound was obtained By using at least 4 wells for every dose of a test compound.
# Cytoprotection in Human Neuroblastoma SK-N-SH Cells Against a PI-3-kinase Inhibitor, LY-294002
# as §1, with “cytotoxicity assay.” for “cytotoxicity test.”
# The survival activity of nerve cells that were still living one day after initiation of the cytotoxicity test was determined by the activity of the cells to reduce the Alamarblue™ reagent as an index. […]
row,SMILES,Cytoprotection Activity (%)
1,"Cc1c(C)c2c(c(C)c1NC(=O)c1ccc3c(c1)OCO3)C(c1ccc(C(C)C)cc1)C(C)(C)O2 (stereo not shown) [Example 22b, N-[3-(4-Isopropylphenyl)-2,2,4,6,7-pentamethyl-2,3-dihydro-1-benzofuran-5-yl]-1,3-benzodioxol-5-carboxamide]",12.8%
2,"Cc1c(C)c2c(c(C)c1NC(=O)c1cccs1)C(c1ccc(C(C)C)cc1)C(C)(C)O2 (stereo not shown) [Example 24b, N-[3-(4-Isopropylphenyl)-2,2,4,6,7-pentamethyl-2,3-dihydro-1-benzofuran-5-yl]-2-thiophenecarboxamide]",16.4%
3,"Cc1c(C)c2c(c(C)c1NC(=O)c1ccc(Cl)cc1)C(c1ccc(C(C)C)cc1)C(C)(C)O2 (stereo not shown) [Example 20b, 4-Chloro-N-[3-(4-isopropylphenyl)-2,2,4,6,7-pentamethyl-2,3-dihydro-1-benzofuran-5-yl]benzamide]",12.6%
4,"COc1cc2c(cc1OC)CN(c1c(C)c(C)c3c(c1C)C(c1ccc(C)cc1)C(C)(C)O3)C2 (stereo not shown) [Example 6a, 5,6-dimethoxy-2-[2,2,4,6,7-pentamethyl-3-(4-methylphenyl)-2,3-dihydro-1-benzofuran-5-yl]isoindoline]",28.2%
5,"COc1ccc(C(=O)Nc2c(C)c(C)c3c(c2C)C(c2ccc(C(C)C)cc2)C2(CCN(C)CC2)O3)cc1 (stereo not shown) [Example 52b, N-[3-(4-Isopropylphenyl)-1′,4,6,7-tetramethylspiro[benzofuran-2(3H),4′-piperidine]-5-yl]-4-methoxybenzamide]",16.4%
6,"Cc1ccc(C2c3c(C)c(-n4cc5cc6c(cc5c4)OCO6)c(C)c(C)c3OC2(C)C)cc1 (stereo not shown) [Example 14a, 6-[2,2,4,6,7-pentamethyl-3-(4-methylphenyl)-2,3-dihydro-1-benzofuran-5-yl]-6H-[1,3]dioxolo[4,5-f]isoindole]",26.6%
7,"COc1ccc(CNc2c(C)c(C)c3oc(C)c(-c4ccc(C(C)C)cc4)c3c2C)cc1 [Example 45b, 3-(4-isopropylphenyl)-N-(4-methoxybenzyl)-2,4,6,7-tetramethyl-1-benzofuran-5-amine]",20.6%
